Measurements reported in patent US4072755A, “Novel cyclopentanoic acid derivatives” (Roussel UCLAF, priority 1975, dated 1978).

What was measured:
[1] = test system: prostaglandin synthetases of lungs of guinea pigs; test: Inhibitory effect against biosynthesis of prostaglandins starting with arachidonic acid by prostaglandin synthetases of lungs of guinea pigs (Vane); assay type: biochemical; conditions: guinea pig lung homogenate supernatant, 10 μg arachidonic acid, 30 minutes at 37° C; prostaglandin-like activity read on isolated rat colon; read-out: CI50 (inhibited by 50% the biosynthesis activity)
Source text: C. INHIBITORY EFFECT AGAINST BIOSYNTHESIS OF PROSTAGLANDINS SYNTHESIS OF PROSTAGLANDINS STARTING WITH ARACHIDONIC ACID BY MEANS OF PROSTAGLANDIN SYNTHETASES OF LUNGS OF GUINEA PIGS.
This test used the procedure of Vane [Nature New Biology, Vol. 231 (1971), p. 232-235] wherein the lungs of adult guinea pigs (2 per series) were rapidly removed and washed with a modified, iced Bucher medium. The lung tissue was homogenized in a Turrax grinder in a minute and the homogenate was centrifuged for 20 minutes to 1200 g. The supernatant was used as a preparation of prostaglandin synthetases.
A solution of arachidonic acid in ethanol at a concentration of 10 mg/ml was diluted with a 0.2% aqueous sodium carbonate solution and was then diluted further with a modified Bucher medium to obtain a final acid concentration of 200 μg/ml. The biosynthesis inhibitors are put into aqueous or dilute alcohol (20% maximum) solutions. Tubes were prepared containing 1 ml of the prostaglandin synthetases preparation, 10 μg of arachidonic acid and 0.1 ml of inhibiting solution or, for the controls, an equal volume of water or dilute alcohol. The tubes were incubated with stirring for 30 minutes at 37° C in aerobic conditions and each test consisted of a tube containing a biosynthesis inhibitor, one biosynthesis control with incubated arachidonic acid and one control with non-incubated arachidonic acid. The latter control permitted a evaluation of amount of natural prostaglandins present in the ground lung and the results obtained with this control must therefore be taken away from the control of biosynthesis and from all the tests. The reactions were stopped by immension in boiling water until the proteins are coagulated. The dosage of "prostaglandin like" activity was effected biologically on the isolated rat colon suspended in Krebs liquid, mixed to augment the specificity, with antagonists to other contracturant mediators susceptible to interfere. The antagonists were mepyramine, scopolamine, methysergide, phenoxybenzamine and propanolol.
A comparison of the results registered in the presence or absence of a test product permitted the calculation of the percentage of biosynthesis inhibition. The CI50 dose which inhibited by 50% the biosynthesis activity was graphically obtained by straight line representing the percent of inhibition with reference to the incubated controls against the log of the concentration in μg/ml and the results are reported in Table II.

[2] = test system: guinea pig ileon; test: Relaxant activity on the guinea pig ileon (isolated organ bath); conditions: isolated terminal guinea pig ileon, oxygenated Tyrode liquid, 37° C; for minimal effective concentration: Cavia porcellus, read-out: Relaxant Activity (concentration which caused a suppression of spontaneous contractions and relaxed the organ)
Method: The relaxant effect of the test compounds was determined on guinea pig ileon using the following procedure. The terminal portion of the guinea pig ileon was removed and washed with Tyrode solution at 37° C. It was then suspended in a bath of oxygenated Tyrode liquid at 37° C and the contractions were registered on a collector attached to a Sanborn polygraph. The test product was added to bath of the organ with a low volume and the concentration which caused a suppression of spontaneous contractions and relaxed the organ causing a lowering of the line of the base was considered to be relaxant.

[3] = test system: mice; test: Analgesic activity - stretching provoked by acetic acid (Koster et al); assay type: in vivo; conditions: Mus musculus, 0.25 h, oral, one half hour before intraperitoneal 1% acetic acid 100 mg/kg, 15 minute observation, fasted, read-out: DA50 (dose which reduced the number of stretchings by 50%)
Method: The test procedure was that of Koster et al wherein an intraperitoneal injection of aqueous acetic acid in a concentration of 1% at a dose of 100 mg/kg caused in mice repeated movements of stretching and twisting which can persist for more than 6 hours. Analgesics prevent or lessen the syndrome. The test products were orally administered one half hour before the acetic acid injection and the mice were fasted from the day before the test. The stretching were counted for each mouse during a 15 minute observation period beginning right after the acetic acid injection and the analgesic effect was expressed as a percentage of protection with respect to the controls.

IC50 [1] [µM] | SMILES | minimal effective concentration [2] [µg/mL] | Relaxant Activity (concentration which caused a suppression of spontaneous contractions and relaxed the organ) [2] [µg/mL] | ED50 [3] [mg/kg]
671 | CCCCC[C@@H](/C=C/[C@H]1CC[C@@H](O)[C@@H]1C(=O)OCC)OC (relative stereo) [Product E, ethyl (1RS, 2RS, 5RS, 3'SR) (1'E) 2-hydroxy-5(3'-methoxy-1'-octenyl)-cyclopentanecarboxylate] | 10 | – | –
436 | CCCCC[C@@H](/C=C/[C@H]1CC[C@H](O)[C@@H]1C(=O)OCC)OC (relative stereo) [Product D, ethyl (1RS, 2SR, 5RS, 3'SR) (1'E) 2-hydroxy-5-(3'methoxy-1'-octenyl)-cyclopentanecarboxylate] | 5 | – | –
– | CCCCC[C@H](O)/C=C/[C@H]1CC[C@H](O)[C@H]1CO (racemic) [Product A, (1RS, 2SR, 5RS, 3'SR) (1'E) 2,3'-dihydroxy-5-(1'-octenyl)-cyclopentane methonol] | – | 20 | –
123 | CCCCC[C@@H](/C=C/[C@H]1CC[C@H](O)[C@@H]1C(=O)OCC)OC(=O)CCC(=O)O (relative stereo) [Product F, ethyl (1RS, 2SR, 5RS, 3'SR) (1'E) 2-hydroxy-5-(3'-hemisuccinyloxy-1'-octenyl)-cyclopentanecarboxylate] | – | – | –
137 | CCCCCCCCCC(=O)O[C@H](/C=C/[C@H]1CC[C@H](O)[C@@H]1C(=O)OCC)CCCCC (relative stereo) [Product C, ethyl (1RS, 2SR, 5RS, 3'SR) (1'E) 2-hydroxy-5-(3'-decanoyloxy-1'-octenyl)-cyclopentanecarboxylate] | 20 | – | –
113 | CCCCCCCCCC(=O)O[C@H](/C=C/[C@H]1CC[C@@H](O)[C@@H]1C(=O)OCC)CCCCC (relative stereo) [Product G, ethyl (1RS, 2RS, 5RS, 3'SR) (1'E) 2-hydroxy-5-(3'-decanoyloxy-1'-octenyl)-cyclopentanecarboxylate] | – | – | –
– | CCCCC[C@@H](/C=C/[C@H]1CC[C@H](O)[C@@H]1C(=O)OCC)OC(=O)c1ccccc1C(=O)O (relative stereo) [Product B, ethyl (1RS, 2SR, 5RS, 3'SR) (1'E) 2-hydroxy-5-(3'-α-hemiphthaloyloxy-1'-octenyl)-cyclopentanecarboxylate] | – | – | ~100
